Marks after values point to notes of the source that are not given here.
Columns and labels:
[1] = test system: ouabain induced arrhythmia (VT, VF, mortality); assay: Ouabain induced arrhythmia model in guinea pig; type: in vivo; conditions: for actual incidence of mortality (value in parenthesis): 60 min; for actual incidence of mortality (value in parenthesis) / actual incidence of VF (value in parenthesis) / actual incidence of VT (value in parenthesis): number of animals of the group; for % INCIDENCE OF MORTALITY: mortality at 60 min; for deaths due to conduction block (60 min), actual incidence (value in parenthesis) / deaths due to tachyarrhythmia (60 min), actual incidence (value in parenthesis): number of animals; for % INCIDENCE OF VF / % INCIDENCE OF VT: ouabain 240 μg/kg in three doses, observed one hour; for DEATHS DUE TO CONDUCTION BLOCK (60 MIN) Percentage / DEATHS DUE TO TACHYARRHYTHMIA (60 MIN) Percentage: percentage deaths out of total mortality
From the text: Method: Guinea pigs (Dunken Hartley) of either sex weighing between 400 and 500 g were used for the study. The animals were anesthetized with urethane (1.25 g/kg. i.p.). The left common carotid artery and left jugular vein were cannulated for arterial blood pressure monitoring and intravenous access respectively. Lead II electrocardiogram, arterial blood pressure, mean arterial blood pressure (MABP), heart rate were monitored throughout the experiment.
After initial surgical preparations and allowing 30 minutes for the animal to stabilise the first dose of ouabain (90 μg/kg) was administered over a period of one minute. After the interval of thirty minutes, second dose of ouabain (60 μg/kg) was administered over a period of one minute. One minute after this dose, 0.5 ml saline (in control experiments) was administered over a period of one minute. After an interval of 10 minutes a third dose of ouabain (90 μg/kg) was administered over a period of one minute. […] The test compounds were administered to animals in test group in place of saline to evaluate their antiarrhythmic potential. From the ECG recordings, the incidence of VT, VF and mortality were recorded. The doses of ratios of sotalol isomers studied were 0.1, 0.5 and 2.5 mg/kg.
Interpretation of ECG recordings: Minor disturbance in rhythm was not considered while evaluating ventricular tachyarrhythmias. A run of more than 3 ventricular ectopic beats having wide QRS complexes associated with partial haemodynamic collapse was considered as Ventricular Tachycardia (VT). Total morphological irregularity of repetitive complexes for at least six cycles associated with complete haemodynamic collapse was considered as Ventricular Fibrillation (VF). Successful arrhythmia protection was defined as no occurrence of VT and VF from the injection of saline/test drug till the end of the experiment.
Statistics: Chi square test with continuity correction at 95% confidence limit was applied to find out the statistical significance between control and test groups for incidence of VT, VF and mortality. Whenever, any of the value in a cell was less than 5, Fischer's exact probability test was used.
Results: Different ratios of sotalol in the dose range from 0.02 mg/kg to 12.5 mg/kg were studied in individual groups of animals. In all 18 groups were studied and at least 6 animals were used in each group. In control animals ouabain 240 μg/kg in three divided doses induced reproducible ventricular tachyarrhythmias in guinea pigs. It was observed that ventricular arrhythmias appeared after the administration of the third dose. Guinea pigs which responded early i.e. before or within 1 min. of administration of the second dose, were considered early responders and were not included in the study. […] In the study, control experiments were carried out randomly interspersed in test groups. Among the 42 control animals the incidence of VT was 81%, incidence of VF was 71.4% and the incidence of mortality at 60 minutes was 61.9%.

[2] = test system: beta adrenergic blockade, isolated right auricle preparation of rabbit; assay: Beta blocking potency (pA2 against isoprenaline) in isolated rabbit right auricle; conditions: isoprenaline chronotropic response, Schild's plot
Method: Estimation of the beta blockade of various ratios of d- and l- isomers of sotalol was carried out in the isolated right auricle preparation of rabbit. The spontaneously beating right atrium was dissected and mounted in a 20 ml tissue bath. The resting tension on the atria was set at 1 g. The contractions were recorded using a force displacement transducer. The spontaneous contractions of the right atria were recorded isometrically and the heart rate was obtained as a derived parameter using a ratemeter that gave the output in beats per minute. Six different ratios of d and l isomers were investigated (1:1, 2:1, 3:1, 4:1, 5:1 and 1:0). Dose-response-curves (DRC) for isoprenaline in the isolated atria, using the chronotropic response were determined by cumulative addition of isoprenaline. The pA2 values of each of the ratios were estimated using the classical Schild's plot (Schild, 1957) and the values are shown in Table 1.

[3] = guinea pig, in vivo, listed as 4:1 ratio (d:l)

## CC(C)NCC(O)c1ccc(NS(C)(=O)=O)cc1 (stereo not shown) [3:1 RATIO, N-[4-[1-hydroxy-2-[(1-methylethyl)amino]ethyl]phenyl] methane sulfonamide]
[1]; 0.1 mg/kg
  actual incidence of mortality (value in parenthesis): (2)
  % INCIDENCE OF MORTALITY: 33.3%
  deaths due to conduction block (60 min), actual incidence (value in parenthesis): (1)
  deaths due to tachyarrhythmia (60 min), actual incidence (value in parenthesis): (1)
  actual incidence of VF (value in parenthesis): (4)
  actual incidence of VT (value in parenthesis): (4)
  % INCIDENCE OF VF: 66.6%
  % INCIDENCE OF VT: 66.6%
  DEATHS DUE TO CONDUCTION BLOCK (60 MIN) Percentage: 50.0%
  DEATHS DUE TO TACHYARRHYTHMIA (60 MIN) Percentage: 50.0%
[1]; 0.5 mg/kg
  actual incidence of mortality (value in parenthesis): (3)
  % INCIDENCE OF MORTALITY: 37.5%
  deaths due to conduction block (60 min), actual incidence (value in parenthesis): (3)
  deaths due to tachyarrhythmia (60 min), actual incidence (value in parenthesis): (0)*
  actual incidence of VF (value in parenthesis): (2)
  actual incidence of VT (value in parenthesis): (3)*
  % INCIDENCE OF VF: 25.0%
  % INCIDENCE OF VT: 37.5%
  DEATHS DUE TO CONDUCTION BLOCK (60 MIN) Percentage: 100.0%
  DEATHS DUE TO TACHYARRHYTHMIA (60 MIN) Percentage: 00.0%
[1]; 0.5 mg/kg, listed as 3:1 ratio (d:l)
  protection against ouabain induced VT: showed protection
[1]; 2.5 mg/kg
  protection against arrhythmias (VT and VF): protected
  protection from deaths due to tachyarrhythmias: completely protected
  actual incidence of mortality (value in parenthesis): (2)
  % INCIDENCE OF MORTALITY: 33.3%
  deaths due to conduction block (60 min), actual incidence (value in parenthesis): (2)
  deaths due to tachyarrhythmia (60 min), actual incidence (value in parenthesis): (0)
  actual incidence of VF (value in parenthesis): (0)*
  actual incidence of VT (value in parenthesis): (0)*
  % INCIDENCE OF VF: 00.0%
  % INCIDENCE OF VT: 00.0%
  DEATHS DUE TO CONDUCTION BLOCK (60 MIN) Percentage: 100.0%
  DEATHS DUE TO TACHYARRHYTHMIA (60 MIN) Percentage: 00.0%
[1]; 2.5 mg/kg, listed as 3:1
  protection against arrhythmias (VT and VF): complete protection
[1]; 2.5 mg/kg, listed as 3:1 ratio
  % INCIDENCE OF MORTALITY: 33.3%
[1]; 0.5 and 2.5 mg/kg dose
  mortality: low
[1]; guinea pig, in vivo, listed as 3:1 ratio (d:l)
  dose at which complete protection against VT was observed: 2.5 mg/kg
[1]; no dose stated
  cause of deaths: due to conduction abnormalities
  mortality compared with control groups: less than that of control groups
[2]; listed as 3:1
  pA2 Mean: 6.15

## CC(C)NCC(O)c1ccc(NS(C)(=O)=O)cc1 (stereo not shown) [4:1 RATIO, N-[4-[1-hydroxy-2-[(1-methylethyl)amino]ethyl]phenyl] methane sulfonamide]
[1]; 0.5 mg/kg
  actual incidence of mortality (value in parenthesis): (2)
  % INCIDENCE OF MORTALITY: 33.3%
  deaths due to conduction block (60 min), actual incidence (value in parenthesis): (1)
  deaths due to tachyarrhythmia (60 min), actual incidence (value in parenthesis): (1)
  actual incidence of VF (value in parenthesis): (6)
  actual incidence of VT (value in parenthesis): (6)
  % INCIDENCE OF VF: 100.0%
  % INCIDENCE OF VT: 100.0%
  DEATHS DUE TO CONDUCTION BLOCK (60 MIN) Percentage: 50.0%
  DEATHS DUE TO TACHYARRHYTHMIA (60 MIN) Percentage: 50.0%
[1]; 2.5 mg/kg
  protection against VF: some protection
  protection against ouabain induced VT: some protection
  actual incidence of mortality (value in parenthesis): (2)
  % INCIDENCE OF MORTALITY: 33.3%
  deaths due to conduction block (60 min), actual incidence (value in parenthesis): (2)
  deaths due to tachyarrhythmia (60 min), actual incidence (value in parenthesis): (0)
  actual incidence of VF (value in parenthesis): (2)
  actual incidence of VT (value in parenthesis): (2)*
  % INCIDENCE OF VF: 33.3%
  % INCIDENCE OF VT: 33.3%
  DEATHS DUE TO CONDUCTION BLOCK (60 MIN) Percentage: 100.0%
  DEATHS DUE TO TACHYARRHYTHMIA (60 MIN) Percentage: 00.0%
[1]; 2.5 mg/kg, listed as 4:1
  protection against arrhythmias (VT and VF): could not protect
  % INCIDENCE OF MORTALITY: 33.3%
  % INCIDENCE OF VF: 33.3%
  % INCIDENCE OF VT: 33.3%
[1]; 12.5 mg/Kg
  protection against arrhythmias (VT and VF): could protect
[1]; 12.5 mg/kg
  actual incidence of mortality (value in parenthesis): (4)
  % INCIDENCE OF MORTALITY: 66.6%
  deaths due to conduction block (60 min), actual incidence (value in parenthesis): (3)
  deaths due to tachyarrhythmia (60 min), actual incidence (value in parenthesis): (1)
  actual incidence of VF (value in parenthesis): (0)*
  actual incidence of VT (value in parenthesis): (0)*
  % INCIDENCE OF VF: 00.0%
  % INCIDENCE OF VT: 00.0%
  DEATHS DUE TO CONDUCTION BLOCK (60 MIN) Percentage: 75.0%
  DEATHS DUE TO TACHYARRHYTHMIA (60 MIN) Percentage: 25.0%
[1]; 12.5 mg/kg, listed as 4:1 ratio
  % INCIDENCE OF MORTALITY: 66.6%
[1]; effective dose of 12.5 mg/kg
  mortality: significantly high
[1]; [3]
  dose at which complete protection against VT was observed: 12.5 mg/kg
  dose that completely protected against VF: 12.5 mg/kg
[2]; listed as 4:1
  pA2 Mean: 6.01

## CC(C)NCC(O)c1ccc(NS(C)(=O)=O)cc1 (stereo not drawn) [d-SOTALOL, N-[4-[1-hydroxy-2-[(1-methylethyl)amino]ethyl]phenyl] methane sulfonamide]
[1]; 0.5 mg/kg
  actual incidence of mortality (value in parenthesis): (5)
  % INCIDENCE OF MORTALITY: 50.0%
  deaths due to conduction block (60 min), actual incidence (value in parenthesis): (1)
  deaths due to tachyarrhythmia (60 min), actual incidence (value in parenthesis): (4)
  actual incidence of VF (value in parenthesis): (7)
  actual incidence of VT (value in parenthesis): (7)
  % INCIDENCE OF VF: 70.0%
  % INCIDENCE OF VT: 70.0%
  DEATHS DUE TO CONDUCTION BLOCK (60 MIN) Percentage: 20.0%
  DEATHS DUE TO TACHYARRHYTHMIA (60 MIN) Percentage: 80.0%
[1]; 2.5 mg/kg
  actual incidence of mortality (value in parenthesis): (6)
  % INCIDENCE OF MORTALITY: 66.6%
  deaths due to conduction block (60 min), actual incidence (value in parenthesis): (3)
  deaths due to tachyarrhythmia (60 min), actual incidence (value in parenthesis): (3)
  actual incidence of VF (value in parenthesis): (6)
  actual incidence of VT (value in parenthesis): (7)
  % INCIDENCE OF VF: 66.6%
  % INCIDENCE OF VT: 77.7%
  DEATHS DUE TO CONDUCTION BLOCK (60 MIN) Percentage: 50.0%
  DEATHS DUE TO TACHYARRHYTHMIA (60 MIN) Percentage: 50.0%
[1]; 12.5 mg/kg
  actual incidence of mortality (value in parenthesis): (6)
  % INCIDENCE OF MORTALITY: 100.0%
  deaths due to conduction block (60 min), actual incidence (value in parenthesis): (3)
  deaths due to tachyarrhythmia (60 min), actual incidence (value in parenthesis): (3)
  actual incidence of VF (value in parenthesis): (3)
  actual incidence of VT (value in parenthesis): (3)
  % INCIDENCE OF VF: 50.0%
  % INCIDENCE OF VT: 50.0%
  DEATHS DUE TO CONDUCTION BLOCK (60 MIN) Percentage: 50.0%
  DEATHS DUE TO TACHYARRHYTHMIA (60 MIN) Percentage: 50.0%
[1]; 12.5 mg/kg, listed as d-Sotalol
  % INCIDENCE OF MORTALITY: 100%
[1]; doses 2.5 mg/kg and 12.5 mg/kg
  cause of deaths: equally due to conduction abnormality as well as tachyarrhythmias
[1]; no dose stated
  protection against ouabain induced VF: ineffective
  protection against ouabain induced VT: ineffective
[2]; listed as 1:0
  pA2 Mean: 5.44
[2]; listed as pure d-isomer of sotalol
  pA2 Mean: 5.44
